Test results: patent publication US20230064990A1, “DOSING REGIMENS AND METHODS FOR TREATING CANCER” (Panbela Therapeutics, Inc., priority 2020, published 2023)

How the values were obtained:
[1] = Phase 1a/1b study in combination with G and A, safety; type: in vivo, human; conditions: N=20
Procedure: G (1000 mg/m^2) and A (125 mg/m^2) were administered intravenously on Days 1, 8, and 15 of each cycle. […] PK was evaluated on day 1 of cycle 1. Efficacy was assessed by CA19-9 levels, objective response was assessed by RECIST criteria, progression-free survival (PFS) and overall survival (OS).
This is a multicenter, open label, Phase 1a/1b study to evaluate to evaluate the safety, tolerability, pharmacokinetics and efficacy of (S,S)-(HO)2DEHSPM when administered in combination with G and A as first-line therapy in pancreatic cancer patients previously untreated for metastatic disease. The objective was to determine a recommended Phase 2 dose. Using a modified 3+3 dose escalation scheme, cohorts of subjects were dosed with subcutaneous injections of (S,S)-(HO)2DEHSPM at 0.2, 0.4 or 0.6 mg/kg days 1-5 of each 28-day cycle. Gemcitabine (1000 mg/m^2) and A (125 mg/m^2) were administered intravenously on Days 1, 8, and 15 of each cycle. […] PK was evaluated on day 1 of cycle 1. Efficacy was assessed by objective response rate (ORR) using RECIST criteria and by changes in CA19-9 levels. Subjects were treated until disease progression or the development of dose-limiting toxicity. Based upon initial safety findings and preliminary signals of efficacy, the protocol was amended to evaluate progression-free survival (PFS) and overall survival (OS) and expand the study to up to 36 subjects at the recommended Phase 2 dose. To date, 20 subjects were enrolled in cohorts 1-3 and evaluated for dose limiting toxicity and early signals of efficacy.

[2] = tested on: human L3.6pl pancreatic cancer cells; experiment: Orthotopic implantation of L3.6pl pancreatic cancer cells into nude mice; conditions: Study 3, GEM 100 mg/kg 2×/wk ip, (S,S)-(HO)2DEHSPM 25 mg/kg 3×/wk
Procedure: These studies examined the anti-neoplastic effects of subcutaneous administration of (S,S)-(HO)2DEHSPM following orthotopic implantation of human L3.6pl pancreatic cancer cells into the pancreas of nude mice.
L3.6pl cells were injected into the pancreas of nude mice; treatment was initiated by group (n=10/group planned) 7-10 days later following establishment of tumors:
Study 1: saline (control), (S,S)-(HO)2DEHSPM (25 mg/kg), (S,S)-(HO)2DEHSPM (50 mg/kg), and (S,S)-(HO)2DEHSPM (100 mg/kg) daily (QD) for 4 to 6 weeks (wks).
Study 2: saline (control), (S,S)-(HO)2DEHSPM (25 mg/kg QD), (S,S)-(HO)2DEHSPM (25 mg/kg 3×/wk), (S,S)-(HO)2DEHSPM (15 mg/kg 3×/wk), and (S,S)-(HO)2DEHSPM (5 mg/kg 3×/wk) for 4 to 6 wks.
Study 3: saline (control), gemcitabine (GEM) (100 mg/kg 2×/wk, intraperitoneally), (S,S)-(HO)2DEHSPM (25 mg/kg 3×/wk), and (S,S)-(HO)2DEHSPM+GEM for 4 to 6 wks.

PDA = conditions: pivotal trials; cited from earlier work

Compound	Grade ≥3 Elevated LFTs related to the named study medication (subjects) [1]	decreases in body weight ([2]; 4 to 6 wks)	decreases in pancreas weight ([2]; compared with controls)	decreases in tumor volume ([2]; compared with controls)	DCR, historical rate (PDA)	ORR, historical rate (PDA)
Nc1ccn([C@@H]2O[C@H](CO)[C@@H](O)C2(F)F)c(=O)n1 [GEM, gemcitabine, reference compound]	1 (G)	18.7%	24.7%	37.8%	–	–
FOLFIRINOX	–	–	–	–	70%	32%
